Source: patent US9402819B2, “Anti-HIV compound and preparation method and use thereof” (Sichuan University, priority 2012, dated 2016)
In brackets after ≈: the same amount, converted by molar mass.

Assays:
[1] = Cytotoxicity (CC50) in H9 cells; assay type: cell-based, human; settings: human
Description: (§1) The anti-HIV activity was determined by the “Guiding Principles of Anti HIV Drug Unclinical Pharmacodynamics” of SFDA which is tested by technology standard assay according to International Universal Standards and Methods. Where in CC50, EC50 were measured twice and took the average.

HIV-1IIIB [2] = test: Anti-HIV activity in H9 cells; assay type: cell-based; settings: for TI: CC50/EC50
Description: as §1

[3] = Cytotoxicity (CC50) in C8166 cells; assay type: cell-based; settings: human
Description: as §1

HIV-1IIIB [4] = test: Anti-HIV activity in C8166 cells; assay type: cell-based; settings: for TI: CC50/EC50
Description: as §1

[5] = Human immunodeficiency virus 1, HIV-1IIIB, H9 cells, read-out: EC50
[6] = Human immunodeficiency virus 1, HIV-1IIIB, C8166 cells, read-out: EC50

| SMILES | CC50 ([1]; H9 cells, read-out: CC50) | EC50 (HIV-1IIIB [2]; [5]) | CC50 [3] | EC50 (HIV-1IIIB [4]; [6]) | TI (HIV-1IIIB [2]; H9 cells) | TI (HIV-1IIIB [4]; C8166 cells) | CC50 [1] | EC50 (HIV-1IIIB [2]; Human immunodeficiency virus 1, H9) | EC50 (HIV-1IIIB [4]; Human immunodeficiency virus 1, C8166) |
| --- | --- | --- | --- | --- | --- | --- | --- | --- | --- |
| COc1ccccc1NC(=O)c1cc(C(F)(F)F)ccc1Sc1ccc([N+](=O)[O-])cc1 [Compound 22, N-(2-methoxyphenyl)-2-((4-nitrophenyl)thio)-5-(trifluoromethyl)benzamide] | > 200 µg/mL |  |  |  |  |  |  |  |  |
| COc1ccccc1NC(=O)c1cc([N+](=O)[O-])ccc1Sc1ccc([N+](=O)[O-])cc1 [Compound 23, N-(2-methoxyphenyl)-5-nitro-2-(4-nitrophenylthio)benzamide] | > 200 µg/mL | > 200 µg/mL | > 200 µg/mL | > 200 µg/mL |  |  |  |  |  |
| COc1ccccc1NC(=O)c1cc(NC(C)=O)ccc1Sc1ccc([N+](=O)[O-])cc1 [Compound 29, 5-acetamido-N-(2-methoxyphenyl)-2-((4-nitrophenyl)thio)benzamide] | 74.6 µg/mL (≈ 171 µM) | > 200 µg/mL | 110 µg/mL (≈ 251 µM) | 73.5 µg/mL (≈ 168 µM) | <0.37 | 1.49 |  |  |  |
| Nc1cccc(NC(=O)c2c(N)cccc2Sc2ccc([N+](=O)[O-])cc2)c1 [Compound 49, 2-amino-N-(3-aminophenyl)-6-(4-nitroph-enylthio)benzamide] | > 200 µg/mL | 41.5 µg/mL (≈ 109 µM) |  |  | 4.82 |  |  |  |  |
| COc1cc(N)ccc1NC(=O)c1c(N)cccc1Sc1ccc([N+](=O)[O-])cc1 [Compound 50, 2-amino-N-(4-amino-2-methoxyphenyl)-6-(4-nitrophenylthio)benzamide] | 81.1 µg/mL (≈ 197 µM) | 28.3 µg/mL (≈ 68.9 µM) |  |  | 2.87 |  |  |  |  |
| COc1ccc(NC(=O)c2c(N)cccc2Sc2ccc([N+](=O)[O-])cc2)c(OC)c1 [Compound 51, 2-amino-N-(2,4-dimethoxyphenyl)-6-(4-nitrophenylthio)benzamide] | 18.1 µg/mL (≈ 42.5 µM) | 18.8 µg/mL (≈ 44.3 µM) |  |  | 0.96 |  |  |  |  |
| COc1ccccc1NC(=O)c1c(Sc2ccc([N+](=O)[O-])cc2)cccc1[N+](=O)[O-] [Compound 52, N-(2-methoxyphenyl)-2-nitro-6-(4-nitrophenylthio)benzamide] | > 200 µg/mL | > 200 µg/mL |  |  |  |  |  |  |  |
| Nc1ccccc1NC(=O)c1c(Sc2ccc([N+](=O)[O-])cc2)cccc1[N+](=O)[O-] [Compound 53, N-(2-aminophenyl)-2-nitro-6-(4-nitrophenylthio)benzamide] | > 200 µg/mL | 43.7 µg/mL (≈ 106 µM) |  |  | >4.58 |  |  |  |  |
| O=C(O)c1cccc(NC(=O)c2c(Sc3ccc([N+](=O)[O-])cc3)cccc2[N+](=O)[O-])c1 [Compound 54, 3-(2-nitro-6-(4-nitrophenylthio)benzamildo)benzoic acid] |  | 83.9 µg/mL (≈ 191 µM) |  |  | 1.02 |  | 85.8 µg/mL (≈ 195 µM) |  |  |
| Nc1ccc(NC(=O)c2c(Sc3ccc([N+](=O)[O-])cc3)cccc2[N+](=O)[O-])cc1 [Compound 55, N-(4-aminophenyl)-2-nitro-6-(4-nitrophenylthio)benzamide] | > 200 µg/mL | > 200 µg/mL | > 200 µg/mL | > 200 µg/mL |  |  |  |  |  |
| COc1ccccc1NC(=O)c1c(NS(=O)(=O)c2ccccc2)cccc1Sc1ccc([N+](=O)[O-])cc1 [Compound 56, N-(2-methoxyphenyl)-2-(4-nitrophenylthio)-6-(phenylsulfonamido)benzamide] | > 200 µg/mL | 137 µg/mL (≈ 256 µM) | > 200 µg/mL | 24.5 µg/mL (≈ 45.7 µM) | >1.46 | >8.17 |  |  |  |
| COc1ccccc1NC(=O)c1c(NS(=O)(=O)c2ccc(C)cc2)cccc1Sc1ccc([N+](=O)[O-])cc1 [Compound 57, N-(2-methoxyphenyl)-2-(4-methylphenylsulfonamido)-6-((4-nitrophenyl)thio)benzamide] | > 200 µg/mL | 16.8 µg/mL (≈ 30.6 µM) | 37.2 µg/mL (≈ 67.8 µM) | 14.1 µg/mL (≈ 25.6 µM) | >11.90 | 2.65 |  |  |  |
| COc1ccccc1NC(=O)c1c(N(C)C)cccc1S(=O)(=O)c1ccc([N+](=O)[O-])cc1 [Compound 58, 2-(dimethylamino)-N-(2-methoxyphenyl)-6-((4-nitrophenyl)sulfonyl)benzamide] | > 200 µg/mL |  | > 200 µg/mL |  |  |  |  |  |  |
| CNc1cccc(S(=O)(=O)c2ccc([N+](=O)[O-])cc2)c1C(=O)Nc1ccccc1OC [Compound 59, N-(2-methoxyphenyl)-2-(methylamino)-6-((4-nitrophenyl)sulfonyl)benzamide] |  |  | > 200 µg/mL |  |  |  |  |  |  |
| COc1ccccc1NC(=O)c1c(NS(=O)(=O)c2ccc(C)cc2)cccc1S(=O)(=O)c1ccc([N+](=O)[O-])cc1 [Compound 60, N-(2-methoxyphenyl)-2-(4-methylphenyls-ulfonamido)-6-((4-nitrophenyl)sulfonyl)benzamide] | > 200 µg/mL | > 200 µg/mL | > 200 µg/mL | 91.3 µg/mL (≈ 157 µM) |  | >2.19 |  |  |  |
| COc1ccccc1NC(=O)c1c(NS(=O)(=O)c2ccccc2)cccc1S(=O)(=O)c1ccc([N+](=O)[O-])cc1 [Compound 61, N-(2-methoxyphenyl)-2-((4-nitrophenyl)sulfonyl)-6-(phenylsulfonamido)benzamide] | > 200 µg/mL |  | > 200 µg/mL |  |  |  |  |  |  |

| SMILES | CC50 ([1]; H9 cells, read-out: CC50) | EC50 (HIV-1IIIB [2]; [5]) | CC50 [3] | EC50 (HIV-1IIIB [4]; [6]) | TI (HIV-1IIIB [2]; H9 cells) | TI (HIV-1IIIB [4]; C8166 cells) | CC50 [1] | EC50 (HIV-1IIIB [2]; Human immunodeficiency virus 1, H9) | EC50 (HIV-1IIIB [4]; Human immunodeficiency virus 1, C8166) |
| --- | --- | --- | --- | --- | --- | --- | --- | --- | --- |
| COc1ccccc1NC(=O)c1c(Sc2ccc([N+](=O)[O-])cc2)cccc1N1CCNCC1 [Compound 62, N-(2-methoxyphenyl)-2-((4-nitrophenyl)thio)-6-(piperazinyl)benzamide] | 14.2 µg/mL (≈ 30.6 µM) | 3.83 µg/mL (≈ 8.24 µM) | 10.2 µg/mL (≈ 22.1 µM) | 3.43 µg/mL (≈ 7.38 µM) | 3.71 | 2.99 |  |  |  |
| COc1ccccc1NC(=O)c1c(Sc2ccc([N+](=O)[O-])cc2)cccc1N1CCOCC1 [Compound 63, N-(2-methoxyphenyl)-2-morpholino-6-((4-nitrophenyl)thio)benzamide] | > 200 µg/mL | > 200 µg/mL | > 200 µg/mL | 53.3 µg/mL (≈ 115 µM) |  | >3.75 |  |  |  |
| COc1ccccc1NC(=O)c1c(NCCBr)cccc1Sc1ccc([N+](=O)[O-])cc1 [Compound 64, 2-((2-bromoethyl)amino)-N-(2-methoxyp-henyl)-6-((4-nitrophenyl)thio)benzamide] | 17.8 µg/mL (≈ 35.5 µM) |  | 10.4 µg/mL (≈ 20.7 µM) |  | 0.85 | 3.28 |  | 21 µg/mL (≈ 41.8 µM) | 3.17 µg/mL (≈ 6.31 µM) |
| COc1ccccc1NC(=O)c1c(NCP(=O)(OC(C)C)OC(C)C)cccc1Sc1ccc([N+](=O)[O-])cc1 [Compound 65, diisopropyl(((2-((2-methoxyphenyl)carbamoyl)-3-((4-nitro-phenyl)thio)phenyl)amino)methyl)phosphonate] | 25.4 µg/mL (≈ 44.3 µM) |  | 18.8 µg/mL (≈ 32.8 µM) |  |  |  |  |  |  |
| Nc1cccc(Sc2ccc([N+](=O)[O-])cc2)c1C(=O)Nc1ccccc1I [Compound 71, 2-amino-N-(2-iodophenyl)-6-((4-nitrophenyl)thio)benzamide] | > 200 µg/mL |  | > 200 µg/mL |  |  |  |  |  |  |
| Nc1cccc(S(=O)(=O)c2ccc([N+](=O)[O-])cc2)c1C(=O)Nc1ccccc1I [Compound 72, 2-amino-N-(2-iodophenyl)-6-((4-nitrophenyl)sulfonyl)benzamide] | > 200 µg/mL |  | > 200 µg/mL |  |  |  |  |  |  |
| CS(=O)(=O)Oc1ccccc1NC(=O)c1c(N)cccc1Sc1ccc([N+](=O)[O-])cc1 [Compound 73, 2-(2-amino-6-((4-nitrophenyl)thio)benzamildo)phenyl methanesulfonate] | > 200 µg/mL | > 200 µg/mL | 194 µg/mL | 36.7 µg/mL |  | 5.28 |  |  |  |
| COc1ccccc1NC(=O)c1c(N)cccc1Sc1cc(C)cc(C)c1 [Compound 74, 2-amino-6-((3,5-dimethylphenyl)thio)-N-(2-methoxyphenyl)benzamide] | > 200 µg/mL | > 200 µg/mL | 68.6 µg/mL (≈ 181 µM) | 7.26 µg/mL (≈ 19.2 µM) |  | 9.45 |  |  |  |
| COc1ccccc1NC(=O)c1c(N)cccc1S(=O)(=O)c1cc(C)cc(C)c1 [Compound 75, 2-amino-6-((3,5-dimethylphenyl)sulfonyl)-N-(2-methoxyphenyl)benzamide] | > 200 µg/mL | > 200 µg/mL | > 200 µg/mL | > 200 µg/mL |  |  |  |  |  |
| COc1ccccc1NC(=O)c1c(N)cccc1Sc1ccc(C(=O)O)cc1 [Compound 76, 4-((3-amino-2-((2-methoxyphenyl)carbamoyl)phenyl)thio)benzoic acid] | > 200 µg/mL |  | > 200 µg/mL |  |  |  |  |  |  |
| COc1ccccc1NC(=O)c1c(N)cccc1S(=O)(=O)c1ccc(C(=O)O)cc1 [Compound 77, 4-((3-amino-2-((2-methoxyphenyl)carbamoyl)phenyl)sulfonyl)benzoic acid] | > 200 µg/mL |  | > 200 µg/mL |  |  |  |  |  |  |
| COc1ccccc1NC(=O)c1c(NCCN)cccc1S(=O)(=O)c1ccc([N+](=O)[O-])cc1 [Compound 79, 2-((2-aminoethyl)amino)-N-(2-methoxyphenyl)-6-((4-nitrophenyl)sulfonyl)benzamide] | 99.5 µg/mL (≈ 211 µM) | 101 µg/mL (≈ 214 µM) | 90.9 µg/mL (≈ 193 µM) | 93.5 µg/mL (≈ 199 µM) | 0.99 | 0.97 |  |  |  |
| COc1ccccc1NC(=O)c1c(NCCO)cccc1Sc1ccc([N+](=O)[O-])cc1 [Compound 80, 2-((2-hydroxyethyl)amino)-N-(2-methoxyphenyl)-6-((4-nitrophenyl)thio)benzamide] | 116 µg/mL (≈ 265 µM) | 19.1 µg/mL (≈ 43.6 µM) | 93.5 µg/mL (≈ 213 µM) | 19.4 µg/mL (≈ 44.2 µM) | 6.08 | 4.81 |  |  |  |
| COc1ccccc1NC(=O)c1c(NCCO)cccc1S(=O)(=O)c1ccc([N+](=O)[O-])cc1 [Compound 81, 2-((2-hydroxyethyl)amino)-N-(2-methoxyphenyl)-6-((4-nitrophenyl)sulfonyl)benzamide] | 72.7 µg/mL (≈ 154 µM) | 102 µg/mL (≈ 216 µM) | 102 µg/mL (≈ 217 µM) | 89.1 µg/mL (≈ 189 µM) | 0.71 | 1.15 |  |  |  |
| COc1ccccc1NC(=O)c1c(NCC(N)=O)cccc1Sc1ccc([N+](=O)[O-])cc1 [Compound 82, 2-((2-amino-2-oxoethyl)amino)-N-(2-methoxyphenyl)-6-((4-nitrophenyl)thio)benzamide] | > 200 µg/mL |  | > 200 µg/mL |  |  |  |  |  |  |
